The numbers were not newly measured in patent US20220184234A1, “METABOLIC TARGETING OF LOW GRADE TUMORS” (SonalaSense, Inc., priority 2020, published 2022), which cites them from elsewhere.

For this data set, the system named is tumor.
Where [1] appears, read: all experimental groups (5-ALA and FUS).

The structures appear in SMILES notation.

Consider `NCC(=O)CCC(=O)O` [5-ALA, 5-aminolevulinic acid], for which the normalized tumor volume (5-ALA only group (no FUS), untreated controls 32±10 mm^3) is given as 24±6 mm^3. The “subjects surviving past 60 days” value (5-ALA, group sonicated at multiple points within the tumor (MP group)) is listed as 50%. Under setting [1], the “survival compared to control animals” value is “improved survival” and the “tumor growth compared to control animals” value was “inhibited tumor growth”. For the same compound, the tissue damage entry (rats, 20 mg/kg 5-ALA, sonication at 55.2 W/cm^2 for 20 minutes) is “suffered tissue damage”.
